{"source": "patent US6737383B1", "about": "“Herbicidal oxadiazolidines” (priority 1999, dated 2004)", "key": {"rice": {"test_system": "rice", "assay": "Test B flood test rice", "type": "in vivo, Oryza sativa", "conditions": "Rate 500 g/ha, listed under Postemergence (flood test species); scale 0 to 10, 0 no effect, 10 complete control", "procedure,_shortened": "(§1)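 Each value is a visual injury score relative to controls, with 10 meaning complete control and 0 no effect. Evaluation took place twelve to sixteen days after the 2-leaf-stage plants were treated and kept in the greenhouse.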"}, "wild oat": {"test_system": "wild oat", "assay": "Test B pre/postemergence wild oat", "type": "in vivo, Avena fatua", "conditions": "for Wild oats plant response rating: scale of 0 to 10 where 0 is no effect and 10 is complete control", "procedure,_shortened": "(§2)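 Herbicidal effect was estimated by eye on a ten-point control scale after plants spent twelve to sixteen days in a greenhouse following soil or foliar treatment. Foliar sprays targeted plants at one to four leaves; all doses were formulated in a non-phytotoxic solvent with surfactant.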"}, "corn": {"test_system": "corn", "assay": "Test B pre/postemergence corn", "type": "in vivo, Zea mays", "conditions": "for Corn plant response rating: scale of 0 to 10 where 0 is no effect and 10 is complete control", "procedure,_shortened": "as §2"}, "blackgrass": {"test_system": "blackgrass", "assay": "Test B pre/postemergence blackgrass", "type": "in vivo, Alopecurus myosuroides", "procedure,_shortened": "as §2"}, "pigweed": {"test_system": "pigweed", "assay": "Test B pre/postemergence pigweed", "type": "in vivo, Amaranthus retroflexus", "conditions": "for Redroot pigweed plant response rating: scale of 0 to 10 where 0 is no effect and 10 is complete control", "procedure,_shortened": "as §2"}, "bedstraw": {"test_system": "bedstraw", "assay": "Test B pre/postemergence bedstraw", "type": "in vivo, Galium aparine", "procedure,_shortened": "as §2"}, "smallflower flatsedge": {"test_system": "smallflower flatsedge", "assay": "Test B flood test smallflower flatsedge", "type": "in vivo, Cyperus difformis", "procedure,_shortened": "as §1"}, "velvetleaf": {"test_system": "velvetleaf", "assay": "Test B pre/postemergence velvetleaf", "type": "in vivo, Abutilon theophrasti", "conditions": "for Velvetleaf plant response rating: scale of 0 to 10 where 0 is no effect and 10 is complete control", "procedure,_shortened": "as §2"}, "crabgrass": {"test_system": "crabgrass", "assay": "Test B pre/postemergence crabgrass", "type": "in vivo, Digitaria sanguinalis", "conditions": "for Crabgrass plant response rating: scale of 0 to 10 where 0 is no effect and 10 is complete control", "procedure,_shortened": "as §2"}, "duck salad": {"test_system": "duck salad", "assay": "Test B flood test duck salad", "type": "in vivo, Heteranthera limosa", "procedure,_shortened": "as §1"}, "morningglory": {"test_system": "morningglory", "assay": "Test B pre/postemergence morningglory", "type": "in vivo, Ipomoea hederacea", "conditions": "for Morningglory plant response rating: scale of 0 to 10 where 0 is no effect and 10 is complete control", "procedure,_shortened": "as §2"}, "[1]": {"conditions": "Postemergence, Rate 125 g/ha, scale 0 to 10, 0 is no effect, 10 is complete control"}, "[2]": {"conditions": "Preemergence, Rate 62 g/ha, scale 0 to 10 (0 no effect, 10 complete control)"}, "[3]": {"conditions": "Rate 500 g/ha, Postemergence, scale 0 to 10, 0 no effect, 10 complete control"}, "[4]": {"conditions": "Preemergence, Rate 500 g/ha, scale of 0 to 10 where 0 is no effect and 10 is complete control"}, "[5]": {"conditions": "Rate 62 g/ha, Postemergence, scale of 0 to 10 where 0 is no effect and 10 is complete control"}, "[6]": {"conditions": "Rate 250 g/ha, Postemergence, scale of 0 to 10 where 0 is no effect and 10 is complete control"}, "[7]": {"conditions": "Postemergence (flood test), Rate 125 g/ha, scale 0 to 10, 0 is no effect, 10 is complete control"}, "[8]": {"conditions": "Rate 500 g/ha, listed under Postemergence (flood test species), scale 0 to 10, 0 no effect, 10 complete control"}}}
{"compound": "CC(C)C(C)n1c(=O)on(C(=O)N(c2ccc(F)cc2F)C(C)C)c1=O", "note": "(stereo not shown) [Compound 356]", "values": [{"measurement": "Plant response rating, Rice", "setting": "rice", "result": 0}, {"measurement": "Plant response rating, Wild oats", "setting": "wild oat; [1]", "result": 3}, {"measurement": "Plant response rating, Wild oats", "setting": "wild oat; [2]", "result": 5}, {"measurement": "Wild oats plant response rating (0 to 10 scale)", "setting": "wild oat; Preemergence, Rate 125 g/ha", "result": 7}, {"measurement": "Wild oats plant response rating", "setting": "wild oat; Preemergence, Rate 250 g/ha", "result": 10}, {"measurement": "Wild oats plant response rating", "setting": "wild oat; Rate 62 g/ha, Postemergence", "result": 2}, {"measurement": "Plant response rating, Wild oats", "setting": "wild oat; [3]", "result": 3}, {"measurement": "Plant response rating, Corn", "setting": "corn; [1]", "result": 0}, {"measurement": "Plant response rating, Corn", "setting": "corn; [2]", "result": 0}, {"measurement": "Corn plant response rating (0 to 10 scale)", "setting": "corn; Preemergence, Rate 125 g/ha", "result": 0}, {"measurement": "Corn plant response rating", "setting": "corn; Preemergence, Rate 250 g/ha", "result": 2}, {"measurement": "Corn plant response rating", "setting": "corn; Preemergence, Rate 500 g/ha", "result": 6}, {"measurement": "Corn plant response rating", "setting": "corn; Rate 62 g/ha, Postemergence", "result": 0}, {"measurement": "Plant response rating, Corn", "setting": "corn; [3]", "result": 3}, {"measurement": "Plant response rating, Blackgrass", "setting": "blackgrass; [1]", "result": 6}, {"measurement": "Plant response rating, Blackgrass", "setting": "blackgrass; [2]", "result": 5}, {"measurement": "Blackgrass plant response rating (0 to 10 scale)", "setting": "blackgrass; Preemergence, Rate 125 g/ha", "result": 6}, {"measurement": "Blackgrass plant response rating", "setting": "blackgrass; Preemergence, Rate 250 g/ha, scale of 0 to 10 where 0 is no effect and 10 is complete control", "result": 9}, {"measurement": "Blackgrass plant response rating", "setting": "blackgrass; [4]", "result": 9}, {"measurement": "Blackgrass plant response rating", "setting": "blackgrass; [5]", "result": 3}, {"measurement": "Plant response rating, Blackgrass", "setting": "blackgrass; [6]", "result": 6}, {"measurement": "Plant response rating, Blackgrass", "setting": "blackgrass; [3]", "result": 7}, {"measurement": "Plant response rating, Redroot pigweed", "setting": "pigweed; [1]", "result": 0}, {"measurement": "Plant response rating, Redroot pigweed", "setting": "pigweed; [2]", "result": 0}, {"measurement": "Redroot pigweed plant response rating (0 to 10 scale)", "setting": "pigweed; Preemergence, Rate 125 g/ha", "result": 4}, {"measurement": "Redroot pigweed plant response rating", "setting": "pigweed; Preemergence, Rate 250 g/ha", "result": 8}, {"measurement": "Redroot pigweed plant response rating", "setting": "pigweed; Preemergence, Rate 500 g/ha", "result": 10}, {"measurement": "Redroot pigweed plant response rating", "setting": "pigweed; Rate 62 g/ha, Postemergence", "result": 0}, {"measurement": "Plant response rating, Redroot pigweed", "setting": "pigweed; [3]", "result": 0}, {"measurement": "Plant response rating, Bedstraw", "setting": "bedstraw; [1]", "result": 0}, {"measurement": "Plant response rating, Bedstraw", "setting": "bedstraw; [2]", "result": 0}, {"measurement": "Bedstraw plant response rating (0 to 10 scale)", "setting": "bedstraw; Preemergence, Rate 125 g/ha", "result": 0}, {"measurement": "Bedstraw plant response rating", "setting": "bedstraw; [4]", "result": 9}, {"measurement": "Bedstraw plant response rating", "setting": "bedstraw; [5]", "result": 0}, {"measurement": "Plant response rating, Bedstraw", "setting": "bedstraw; [6]", "result": 3}, {"measurement": "Plant response rating, Bedstraw", "setting": "bedstraw; [3]", "result": 3}, {"measurement": "Plant response rating, S. Flatsedge", "setting": "smallflower flatsedge; [7]", "result": 4}, {"measurement": "Plant response rating, S. Flatsedge", "setting": "smallflower flatsedge; [8]", "result": 7}, {"measurement": "Plant response rating, Velvetleaf", "setting": "velvetleaf; [1]", "result": 0}, {"measurement": "Plant response rating, Velvetleaf", "setting": "velvetleaf; [2]", "result": 1}, {"measurement": "Velvetleaf plant response rating (0 to 10 scale)", "setting": "velvetleaf; Preemergence, Rate 125 g/ha", "result": 2}, {"measurement": "Velvetleaf plant response rating", "setting": "velvetleaf; Preemergence, Rate 250 g/ha", "result": 3}, {"measurement": "Velvetleaf plant response rating", "setting": "velvetleaf; Preemergence, Rate 500 g/ha", "result": 5}, {"measurement": "Velvetleaf plant response rating", "setting": "velvetleaf; Rate 62 g/ha, Postemergence", "result": 0}, {"measurement": "Plant response rating, Velvetleaf", "setting": "velvetleaf; [3]", "result": 0}, {"measurement": "Plant response rating, Crabgrass", "setting": "crabgrass; [1]", "result": 0}, {"measurement": "Plant response rating, Crabgrass", "setting": "crabgrass; [2]", "result": 7}, {"measurement": "Crabgrass plant response rating (0 to 10 scale)", "setting": "crabgrass; Preemergence, Rate 125 g/ha", "result": 8}, {"measurement": "Crabgrass plant response rating", "setting": "crabgrass; Preemergence, Rate 250 g/ha", "result": 9}, {"measurement": "Crabgrass plant response rating", "setting": "crabgrass; Preemergence, Rate 500 g/ha", "result": 10}, {"measurement": "Crabgrass plant response rating", "setting": "crabgrass; Rate 62 g/ha, Postemergence", "result": 0}, {"measurement": "Plant response rating, Crabgrass", "setting": "crabgrass; [3]", "result": 3}, {"measurement": "Plant response rating, Ducksalad", "setting": "duck salad; [7]", "result": 0}, {"measurement": "Plant response rating, Ducksalad", "setting": "duck salad; [8]", "result": 2}, {"measurement": "Plant response rating, Morningglory", "setting": "morningglory; [1]", "result": 6}, {"measurement": "Plant response rating, Morningglory", "setting": "morningglory; [2]", "result": 0}, {"measurement": "Morningglory plant response rating (0 to 10 scale)", "setting": "morningglory; Preemergence, Rate 125 g/ha", "result": 0}, {"measurement": "Morningglory plant response rating", "setting": "morningglory; Preemergence, Rate 250 g/ha", "result": 0}, {"measurement": "Morningglory plant response rating", "setting": "morningglory; Preemergence, Rate 500 g/ha", "result": 0}, {"measurement": "Morningglory plant response rating", "setting": "morningglory; Rate 62 g/ha, Postemergence", "result": 4}, {"measurement": "Plant response rating, Morningglory", "setting": "morningglory; [3]", "result": 10}]}
